Reference: patent US20130143739A1, “HERBICIDAL COMPOSITION CONTAINING 4-amino-3-chloro-6-(4-chloro-2-fluoro-3-methoxyphenyl) pyridine-2-carboxylic acid or derivative thereof AND FLUROXYPYR or derivatives thereof” (DOW AGROSCIENCES LLC, priority 2011, published 2013)
Values joined by “and” are separate entries in the source; they are usually repeats but may differ in a detail not shown here. Identical values can stand only once.

Key:
Type in all cases: in vivo
[1] = tested on: CASOB (Cassia obtusifolia); assay: Postemergence field trial, weed control in range and pasture; conditions: 29-42 DAA
Description: (§1) Evaluation of Postemergence Herbicidal Activity of Mixtures in Cereal crops and Range and Pasture.
(§2) Field trials were conducted in cereal crops (winter wheat (TRZAW), spring wheat (TRZAS) and spring barley (HORVU) in Canada, France, Germany, Spain, Denmark, United Kingdom and Belgium, and pasture trials were conducted in Colombia using standard herbicide small plot research methodology. Plot size was typical for small plot research, varying from 1.4 to 2 meters (m) wide by 3 to 10 m long. There were 2-4 replicates per treatment. The soil type ranged from coarse, to medium or heavy in terms of soil texture. Cereal crops were planted, grown and maintained as commercial production fields. Perennial pastures were natural plant and weed infestations as per normal local cultural practices. The cereal and pasture crops were grown using normal cultural practices for fertilization and maintenance to ensure good growth of the crop/pastures and the weeds.
(§3) Treatments were applied by backpack or bicycle sprayers using either compressed air, nitrogen, or carbon dioxide (CO2), at spray pressures from 200 to 300 Kpa. Spray tips were typically Flat Fan Teejet nozzles, such as TJ8003. Spray volumes varied from 200 to 400 liters per hectare (L/ha). MEOPA plant size at application varied from 70 to 80 centimeters (cm) tall active growth at flowering stage. All cereal weeds tested varied from 2 leaf to 8 leaf and often branched or tittered.
(§4) For each treatment, the appropriate formulated product amount to treat the plot area, to achieve the desired application rate, based on unit area of application (hectare), was calculated, measured, and mixed in water prior to applying with the backpack or bicycle sprayer. Treatments were rated as compared to the untreated control plots. The commercial fluroxypyr formulations used were Starane® Ultra (333 gr ae/liter) or Starane® 2 (200 gr ae/liter). Compound I was formulated as a 20% weight acid equivalent wettable granule (WG) or as a 7.5 gr ae/liter EC of the corresponding methyl ester. All Compound (I) treatments were tank mixed with an adjuvant. Compound (I) treatments in the cereal trials contained the safener cloquintocet-mexyl.
(§5) Colby's equation was used to determine the herbicidal effects expected from the mixtures (Colby, S. R. Calculation of the synergistic and antagonistic response of herbicide combinations. Weeds 1967, 15, 20-22.).
(§6) The following equation was used to calculate the expected activity of mixtures containing two active ingredients, A and B:
(§7) A=observed efficacy of active ingredient A at the same concentration as used in the mixture.
(§8) B=observed efficacy of active ingredient B at the same concentration as used in the mixture.

[2] = tested on: MEOPA (Melochia parviflora); assay: as above; conditions: for Obs, observed percent weed control: 14 DAA, Table 1; for % Visual Injury, Obs: 63 DAA
Description: as §1, §2, §3, §4, §5, §6, §7, §8

[3] = tested on: AMARE (Amaranthus retroflexus); assay: Postemergence field trial, weed control in cereal crops; conditions: 56 DAA
Description: as §1, §2, §3, §4, §5, §6, §7, §8

[4] = tested on: CHEAL (Chenopodium album); assay: as above; conditions: 14 DAA
Description: as §1, §2, §3, §4, §5, §6, §7, §8

CIRAR (Cirsium arvense) = assay: as above; conditions: 14 DAA
Description: as §1, §2, §3, §4, §5, §6, §7, §8

LAMPU (Lamium purpureum) = assay: as above; conditions: 28 DAA
Description: as §1, §2, §3, §4, §5, §6, §7, §8

[5] = tested on: MATCH (Matricaria chamomilla); assay: as above
Description: as §1, §2, §3, §4, §5, §6, §7, §8

PAPRH (Papaver rhoeas) = assay: as above; conditions: 28 DAA
Description: as §1, §2, §3, §4, §5, §6, §7, §8

[6] = tested on: POLAV (Polygonum aviculare); assay: as above; conditions: 13-27 DAA
Description: as §1, §2, §3, §4, §5, §6, §7, §8

SINAR (Sinapis arvensis) = assay: as above; conditions: 58 DAA
Description: as §1, §2, §3, §4, §5, §6, §7, §8

STAAN (Stachys annua) = assay: as above; conditions: 14 DAA
Description: as §1, §2, §3, §4, §5, §6, §7, §8

STEME (Stellaria media) = assay: as above
Description: as §1, §2, §3, §4, §5, §6, §7, §8

[7] = tested on: VERHE (Veronica hederifolia); assay: as above; conditions: 49 DAA
Description: as §1, §2, §3, §4, §5, §6, §7, §8

[8] = tested on: VEROF (Veronica officinalis); assay: as above; conditions: 28 DAA
Description: as §1, §2, §3, §4, §5, §6, §7, §8

VIOAR (Viola arvensis) = assay: as above; conditions: 14 DAA
Description: as §1, §2, §3, §4, §5, §6, §7, §8

[9] = fluroxypyr MHE 120 g ae/ha alone
[10] = fluroxypyr MHE 77 g ae/ha alone
[11] = fluroxypyr MHE 150 g ae/ha alone
[12] = fluroxypyr MHE 140 g ae/ha alone

CCCCCCC(C)OC(=O)COc1nc(F)c(Cl)c(N)c1Cl (centres unmarked) [Fluroxypyr (MHE), Fluroxypyr Methylheptyl Ester, reference compound]
% Visual Injury, Obs [1, 9]: 18%
Obs, observed percent weed control [2, 9]: 3.5%
% Visual Injury, Obs [2, 9]: 3% and 8%
% Visual Injury, Obs [3, 10]: 20%
% Visual Injury, Obs [4, 11]: 10%
% Visual Injury, Obs (CIRAR (Cirsium arvense); [11]): 10%
% Visual Injury, Obs (LAMPU (Lamium purpureum); fluroxypyr MHE 50 g ae/ha alone): 4%
% Visual Injury, Obs ([5]; 27 DAA, fluroxypyr MHE 200 g ae/ha alone): 47%
% Visual Injury, Obs ([5]; 54 DAA, fluroxypyr MHE 150 g ae/ha alone): 0%
% Visual Injury, Obs (PAPRH (Papaver rhoeas); [12]): 5%
% Visual Injury, Obs [6, 10]: 25%
% Visual Injury, Obs ([6]; fluroxypyr MHE 80 g ae/ha alone): 61%
% Visual Injury, Obs (SINAR (Sinapis arvensis); [12]): 13%
% Visual Injury, Obs (STAAN (Stachys annua); [11]): 30%
% Visual Injury, Obs (STEME (Stellaria media); 28 DAA, fluroxypyr MHE 200 g ae/ha alone): 27%
% Visual Injury, Obs (STEME (Stellaria media); 30 DAA, fluroxypyr MHE 80 g ae/ha alone): 81%
% Visual Injury, Obs (STEME (Stellaria media); 76 DAA, fluroxypyr MHE 110 g ae/ha alone, Table 5): 67%
% Visual Injury, Obs (STEME (Stellaria media); 76 DAA, fluroxypyr MHE 140 g ae/ha alone, Table 3): 77%
% Visual Injury, Obs ([7]; fluroxypyr MHE 110 g ae/ha alone): 42%
% Visual Injury, Obs [8, 12]: 0%
% Visual Injury, Obs (VIOAR (Viola arvensis); [12]): 50%

COC(=O)c1nc(-c2ccc(Cl)c(OC)c2F)cc(N)c1Cl [XDE-729 (Methyl Ester), halauxifen-methyl]
% Visual Injury, Obs ([1]; XDE-729 Me 18 g ae/ha alone): 6%
% Visual Injury, Obs ([1]; XDE-729 Me 35 g ae/ha alone): 16%
Obs, observed percent weed control ([2]; XDE-729 methyl ester 17.5 g ae/ha alone): 48.5%
Obs, observed percent weed control ([2]; XDE-729 methyl ester 35 g ae/ha alone): 63.1%
% Visual Injury, Obs ([2]; XDE-729 Me 18 g ae/ha alone): 25%
% Visual Injury, Obs ([2]; XDE-729 Me 35 g ae/ha alone): 42%
% Visual Injury, Obs ([3]; XDE-729 Me 5 g ae/ha alone): 50%
% Visual Injury, Obs (LAMPU (Lamium purpureum); XDE-729 Me 2 g ae/ha alone): 73%
% Visual Injury, Obs ([5]; 54 DAA, XDE-729 Me 6 g ae/ha alone): 0%
% Visual Injury, Obs (PAPRH (Papaver rhoeas); XDE-729 Me 6 g ae/ha alone): 54%
% Visual Injury, Obs ([6]; XDE-729 Me 2 g ae/ha alone): 0%
% Visual Injury, Obs ([6]; XDE-729 Me 5 g ae/ha alone): 53%
% Visual Injury, Obs (SINAR (Sinapis arvensis); XDE-729 Me 6 g ae/ha alone): 0%
% Visual Injury, Obs (STEME (Stellaria media); 30 DAA, XDE-729 Me 2 g ae/ha alone): 58%
% Visual Injury, Obs (STEME (Stellaria media); 76 DAA, XDE-729 Me 4.5 g ae/ha alone, Table 3): 19%
% Visual Injury, Obs (STEME (Stellaria media); 76 DAA, XDE-729 Me 4.5 g ae/ha alone, Table 5): 22%
% Visual Injury, Obs (STEME (Stellaria media); 76 DAA, XDE-729 Me 6 g ae/ha alone, Table 3): 29%
% Visual Injury, Obs (STEME (Stellaria media); 76 DAA, XDE-729 Me 6 g ae/ha alone, Table 5): 38%
% Visual Injury, Obs ([7]; XDE-729 Me 6 g ae/ha alone): 23%
% Visual Injury, Obs ([8]; XDE-729 Me 6 g ae/ha alone): 0%
% Visual Injury, Obs (VIOAR (Viola arvensis); XDE-729 Me 6 g ae/ha alone): 10%

COc1c(Cl)ccc(-c2cc(N)c(Cl)c(C(=O)O)n2)c1F [XDE-729 (TEA)]
% Visual Injury, Obs ([4]; XDE-729 TEA 8.8 g ae/ha alone): 83%
% Visual Injury, Obs (CIRAR (Cirsium arvense); XDE-729 TEA 8.8 g ae/ha alone): 64%
% Visual Injury, Obs ([5]; 27 DAA, XDE-729 TEA 35 g ae/ha alone): 8%
% Visual Injury, Obs (STAAN (Stachys annua); XDE-729 TEA 8.8 g ae/ha alone): 64%
% Visual Injury, Obs (STEME (Stellaria media); 28 DAA, XDE-729 TEA 35 g ae/ha alone): 10%
